# Assay results: US20180000782A1, “THERAPEUTIC AGENT FOR KERATOCONJUNCTIVE DISORDERS” (priority 2012, published 2018)
# Key:
# [1] = tested on: primary subconjunctival fibroblasts; experiment: Suppression of three-dimensional collagen gel contraction, primary subconjunctival fibroblasts (Example 2); type: cell-based, rabbit; conditions: TGF-β1 1 ng/ml, RARγ agonist A 1, 10, 100 nM, after 48 hours, FIG. 2
# Method: (§1) Primary subconjunctival fibroblasts and primary keratocytes were used to assess the suppression effect of a tested compound on three-dimensional collagen gel contraction in accordance with the method of Nishida et al. As in Example 1, primary subconjunctival fibroblasts were grown and detached from a culture slide. After washing, a cell suspension was made. The resulting suspension (1.1×10^7 cells/well MEM), type I collagen solution (5 mg/ml), 10×MEM, Reconstitution Buffer, and water were mixed on ice at 0.2:7:1:1:1.8 (volume ratio). A culture dish coated with 1% BSA was inoculated with 0.5 ml of the mixture, which was incubated for one hour at 37° C. to make a collagen gel. Then, 0.5 ml of serum free media, to which a certain amount (1 ng/ml) of TGF-β1 (R&D Systems) and RARγ agonist A at each of the concentrations 1 nM, 10 nM, and 100 nM were added, were each added onto the above-described gel. The gel, together with a gel to which an agent-free serum-free medium was added, was continuously incubated at 37° C. The diameter of gels was measured from the time when 24 hours has past.
# MMP-1 = experiment: Suppression of expression and activation of MMP-1, western blot of keratocyte supernatant; type: cell-based, rabbit; conditions: R667 1×10^−6 to 1×10^−2 μM, 12 hours of pre-treatment; 0.1 ng/ml, 24 hours; FIG. 5A
# Method: (§2) It is believed that secretion or expression of protease, i.e., matrix metalloproteinases (MMP), is associated with the degradation of type I collagen. In this regard, suppression of expression and activation of MMP-1, 2, 3, and 9 by RARγ agonist A was investigated. Primary keratocytes collected from a normal rabbit eye ball were cultured for 24 hours in a serum-free MEM medium. RARγ agonist A ([…]) ([…] concentration: 1×10^-6 μM, 1×10^-5 μM, 1×10^-4 μM, 1×10^-3 μM, 1×10^-2 μM) was added to the obtained culture solution and 12 hours of pre-treatment was performed. As a positive control, 10 nM of dexamethasone (Dex), which is a synthetic steroid, was added and pre-treatment was similarly performed. Then, IL-113 (0.1 ng/ml) was added for stimulation, and the supernatant was collected after 24 hours. The following western blot analysis and gelatin zymography analysis were used on the collected culture solution. After developing the supernatant of the collected culture solution in SDS-PAGE using 10% polyacrylamide gel, the separated proteins were transferred onto a nitrocellulose filter. Then, non-specific sites on the nitrocellulose filter were blocked and incubated for 24 hours at 4° C. with anti-human MMP-1 antibodies (R&D Systems) and anti-rabbit MMP-3 antibodies (Daiichi Fine Chemical Co., Ltd). ECL® reagent (GE Healthcare) was used for detection.
# [2] = tested on: normal rabbit primary keratocytes; experiment: Suppression of three-dimensional collagen gel degradation in normal rabbit primary keratocytes (Example 1); type: cell-based; conditions: R667 0.1-1000 nM; stimulant 10 ng/ml and Plasminogen 60 μg/ml; 48 hours of culturing; FIG. 1
# Method: Normal rabbit corneal cells were used to assess the suppression effect of a tested compound on three-dimensional collagen gel degradation in accordance with the method of Nishida et al (Investigative Ophthalmology & Visual Science 42: 1247-1253 (2001)).
# Primary keratocytes collected from a normal rabbit eye ball was grown to a confluent state and detached from a culture slide with 0.05% Trypsin-EDTA. After washing in a serum free medium (product number 11095; Gibco), the number of cells were counted. The obtained primary keratocytes were mixed with the type I collagen solution Cellmatrix Type I-A (product number 637-00653; Nitta Gelatin Inc.) and Reconstitution Buffer (product number 635-00791; Nitta Gelatin Inc.) and dispensed into a 24-well plate so that the final concentration would be 1×10^5 cells/well to make a collagen gel. […]
# After 48 hours of culturing, the supernatant was ultrafiltrated, 100 μl of concentrated hydrochloric acid was added and heated, and the collagen was hydrolyzed. […] The amount of hydroxyproline, which is the collagen degradation product in the solution, was measured in accordance with the method of Bergman et al (Analytical Chemistry 35(12): 1961-1965 (1963)) to assess the effect of suppressing collagen degradation of RARγ agonist A. The results are shown in FIG. 1.
# MMP-9 = experiment: Suppression of expression and activation of MMP-9, gelatin zymography of keratocyte supernatant; type: cell-based, rabbit; conditions: R667 1×10^−6 to 1×10^−2 μM, 12 hours of pre-treatment; IL-113 0.1 ng/ml, 24 hours; FIG. 5B
# Method: (§3) It is believed that secretion or expression of protease, i.e., matrix metalloproteinases (MMP), is associated with the degradation of type I collagen. In this regard, suppression of expression and activation of MMP-1, 2, 3, and 9 by RARγ agonist A was investigated. Primary keratocytes collected from a normal rabbit eye ball were cultured for 24 hours in a serum-free MEM medium. RARγ agonist A ([…]) ([…] concentration: 1×10^-6 μM, 1×10^-5 μM, 1×10^-4 μM, 1×10^-3 μM, 1×10^-2 μM) was added to the obtained culture solution and 12 hours of pre-treatment was performed. As a positive control, 10 nM of dexamethasone (Dex), which is a synthetic steroid, was added and pre-treatment was similarly performed. Then, IL-113 (0.1 ng/ml) was added for stimulation, and the supernatant was collected after 24 hours. The following western blot analysis and gelatin zymography analysis were used on the collected culture solution. After developing the supernatant of the collected culture solution on SDS-PAGE using 10% polyacrylamide gel containing 0.1% of gelatin, it was incubated for one hour at room temperature with a TBS solution containing 2.5% Triton X-100. The gel after incubation was dyed with a solution of Coomassie Brilliant Blue (Wako Pure Chemical Industries, Ltd.) and decolored with a 5% methanol-7.5% acetic acid solution (Nacalai Tesque, Inc).
# MMP-3 = experiment: Suppression of expression and activation of MMP-3, western blot of keratocyte supernatant; type: cell-based, rabbit; conditions: R667 1×10^−6 to 1×10^−2 μM, 12 hours of pre-treatment; IL-113 0.1 ng/ml, 24 hours; FIG. 5A
# Method: as §2
# primary keratocytes [3] = experiment: Suppression of three-dimensional collagen gel contraction, primary keratocytes (Example 2); type: cell-based, rabbit; conditions: TGF-β1, FIG. 3
# Method: as §1, with “past. The gel diameter was measured for primary keratocytes in a similar manner to the primary subconjunctival fibroblasts.” for “past.”
# [4] = tested on: male Japanese white rabbits; experiment: Suppression of corneal opacity and ulceration, LPS injected into the corneal stroma; type: in vivo, rabbit; conditions: 0.1% R667 (24 mM), 50 μl instillation, four times daily until day 10; 1% LPS into the corneal stroma; FIG. 6B
# Method: Systemic anesthesia was applied to male Japanese white rabbits (body weight 2.5-3.5 kg, 27 rabbits) by intramuscular administration of a solution of a mixture of ketamine and xylazine. Then, topical anesthesia was applied by a 0.4% oxybuprocaine hydrochloride instillation. Furthermore, 30 μl of 1% LPS (Sigma Aldrich) was injected into the corneal stroma of one eye, but not in the other eye.
# 50 μl of 0.1% PBS/0.1% polysorbate 80 solution containing RARγ agonist A (R667: 0.1%, 24 mM) was instillatively administered to the rabbits injected with LPS twice after the injection on the day of LPS injection and four times daily thereafter until day 10 by using a micropipette. As a control, a 0.1% PBS/0.1% polysorbate 80 solution free of RARγ agonist A (Vehicle) was similarly administered. FIGS. 6A and 6B show representative examples of a control and a case where RARγ agonist A was administered.
# MMP-2 = experiment: Suppression of expression and activation of MMP-2, gelatin zymography of keratocyte supernatant; type: cell-based, rabbit; conditions: R667 1×10^−6 to 1×10^−2 μM, 12 hours of pre-treatment; 0.1 ng/ml, 24 hours; FIG. 5B
# Method: as §3
# primary keratocytes [5] = experiment: Suppression of three-dimensional collagen gel degradation in primary keratocytes by RARγ agonist A, B or C (Example 3); type: cell-based, rabbit; conditions: R667 1 nM, CD437 1 nM and 10 nM, BMS961 10 nM; stimulant IL-1β 10 ng/ml and Plasminogen 60 μg/ml; 48 hours; FIG. 4
# Method: As in Example 1, primary keratocytes were grown and detached from a culture slide. After washing, a cell suspension was made. The resulting suspension (1.1×10^7 cells/well MEM), type I collagen solution (5 mg/ml), 10×MEM, Reconstitution Buffer, and water were mixed on ice at 0.2:7:1:1:1.8 (volume ratio). A culture dish coated with 1% BSA was inoculated with 0.5 ml of the mixture, which was incubated for one hour at 37° C. to make a collagen gel.
# After 48 hours of culturing, collagen was hydrolyzed and the amount of hydroxyproline, which is the collagen degradation product, was measured by the same method as Example 1 to assess the effect of suppressing collagen degradation of each RARγ agonist.
structure (smiles),measurement,setting,value
"CC1(C)CCC(C)(C)c2cc(Cn3cccn3)c(/C=C/c3ccc(C(=O)O)cc3)cc21 [RARγ agonist A, (E)-4-(2-{3-[(1H-pyrazole-1-yl)methyl]-5,5,8,8-tetramethyl-5,6,7,8-tetrahydronaphthalene-2-yl}vinyl)benzoic acid]",suppression of collagen gel contraction (diameter of collagen gel),[1],can suppress
same,expression and activation of MMP-1 (bands of Pro-MMP-1 and active MMP-1),MMP-1,concentration-dependently suppresses
same,effect of suppressing collagen degradation (amount of hydroxyproline),[2],dosage-dependent effect of suppressing keratoconjunctive collagen degradation
same,expression and activation of MMP-9 (bands of Pro-MMP-9 and active MMP-9),MMP-9,concentration-dependently suppresses
same,expression and activation of MMP-3 (bands of Pro-MMP-3 and active MMP-3),MMP-3,concentration-dependently suppresses
same,suppression of collagen gel contraction (diameter of collagen gel),primary keratocytes [3],can suppress
same,corneal opacity and ulceration,[4],corneal opacity and ulceration were not observed
same,expression and activation of MMP-2 (bands of Pro-MMP-2 and active MMP-2),MMP-2,concentration-dependently suppresses
same,effect of suppressing collagen degradation (ratio of amount of hydroxyproline),primary keratocytes [5],exhibited an effect of suppressing keratoconjunctive collagen degradation
